For orientation: IC50 means the midpoint of a concentration-inhibition curve. Higher therefore signals a need for much substance.

The structures appear in SMILES notation.

In the experiment the test system is P. falciparum 3D7 growth, pLDH absorbance. Briefly: blood-stage malaria parasite growth potency – strain 3D7, dose response (AID 2305).
Consider `CN1CCN(c2cc3c(cc2Cl)CCN3C(=O)Cc2ccc(Cl)c(NC(=O)Nc3cccc(C#N)c3)c2)CC1`, for which the IC50 was 640 nM.

For the molecule `Cc1cccc2[nH]c(-c3cccc(-c4ccc(CN5CCC(C(N)=O)CC5)cc4)c3)nc12`, the IC50 worked out at 850 nM.

For `COc1cc2nccc(Nc3cccc(Oc4ccccc4)c3)c2cc1OC`, the IC50 was 640 nM.

In turn, `FC(F)(F)c1ccc2nc(-c3ccc(-c4ccc(CN5CCN(c6ccncc6)CC5)cc4)s3)[nH]c2c1` had an IC50 of 150 nM.

As to `CN(C)CCCOc1ccccc1CN1CC[C@H](NC(=O)c2ccc(Cl)c(Cl)c2)C1`, the IC50 amounted to 1110 nM.

As for `COc1ccc(C2CC(=O)C3=C(C2)NC(C)=C(C(=O)OC(C)C)C3c2cccc(O)c2)cc1OC` (configuration not stated), the IC50 was determined as 780 nM.

As for `CCCc1cnc2nc(N)nc(N)c2c1C`, the IC50 was 1120 nM.

`C[C@H](Cc1ccc(Oc2ccc(C[C@@H](C)NC[C@H](O)c3cccc(Cl)c3)cc2)cc1)NC[C@H](O)c1cccc(Cl)c1` had an IC50 of 560 nM.

Take `CC(C)Oc1ccc(N2CCN(CCCCNC(=O)c3ccc(NC(=O)c4ccc(Cl)cc4)cc3)CC2)c(OC(C)C)c1`: the IC50 turned out to be 510 nM.

For `OCC(CO)(CO)NCc1ccc2c3c(cccc13)-c1ccccc1-2`, the IC50 is 1260 nM.

`CCc1cc2c(N)nc(N)nc2nc1-c1ccccc1` showed an IC50 of 950 nM.

Molecule `O=C(NC1CCN(Cc2ccccc2)CC1)c1cccc(-c2cc3cc(Cl)c(Cl)cc3[nH]2)c1` returned an IC50 of 720 nM.

`CN1CC=C(c2c[nH]c3ccc(Oc4ccccc4)cc23)CC1` registered an IC50 of 250 nM.

Molecule `COc1cccc(-c2nn(C)c3sc(C(=O)Nc4cccnc4)cc23)c1` displayed an IC50 of 950 nM.

`C[C@@H](CC1CCCCC1)OC(=O)N[C@H]1CCN(C#N)C1` yielded an IC50 of 870 nM.

`COc1ccc(CNCc2ccc(-c3ccc(-c4nc5c(C)cccc5[nH]4)s3)cc2)cc1` came in with an IC50 of 180 nM.

As to `O=C(NC1CCN(CC2(c3ccccc3F)CCCC2)CC1)c1ccn[nH]1`, the IC50 stood at 1000 nM.

For the molecule `O=C(/C=C/c1ccc(Cl)c(Cl)c1)NCCCCCN1CCC(NC(=O)Nc2cc(Cl)cc(Cl)c2)CC1`, the IC50 was 720 nM.

`OCC1CCN(Cc2ccc(-c3cccc(-c4nc5ccc(F)cc5[nH]4)c3)cc2)CC1` came in with an IC50 of 910 nM.

`CNc1ccc(CNCc2cccc(-c3ccc(-c4nc5c(C)cccc5[nH]4)s3)c2)cc1` registered an IC50 of 990 nM.

Consider `Clc1cc(Nc2ccnc3ccc(Br)cc23)ccc1Oc1ccc(Cl)c2ccccc12`, for which the IC50 was found to be 630 nM.

For `COc1cc(Cc2cnc(N)nc2N)cc(OCCCCCC(N)=O)c1OC`, the IC50 was 1190 nM.

Molecule `Clc1ccccc1CNc1noc(-c2sccc2Br)n1` showed an IC50 of 790 nM.

As to `O=C1COc2cc(Cl)c(CNC3CCN(CCc4ccnc5c(F)cc(F)cc45)CC3)nc2N1`, the IC50 was determined as 800 nM.

`Nc1ccnc2ccc(NC(=O)CCCCCc3ccccc3)cc12` returned an IC50 of 860 nM.

Molecule `COc1ccc2ncc(F)c(CCN3CCC(NCc4cnc5c(c4)NC(=O)CS5)CC3)c2c1` had an IC50 of 570 nM.

In turn, `c1cc(-c2ccc(CN3CCCCC3)cc2)cc(-c2nc3ccccc3[nH]2)c1` showed an IC50 of 580 nM.

In the case of `COc1cc(Nc2nccc(-c3c(-c4cccc(NC(=O)c5c(F)cccc5F)c4)nn4ccccc34)n2)cc(OC)c1OC`, the IC50 was 80 nM.

As for `CCCCCCNC(=O)C1Cc2c([nH]c3cc(Cl)ccc23)C2(CCN(CCC)CC2)N1` (configuration not stated), the IC50 amounted to 880 nM.

Molecule `Cc1cccc(Nc2nc(N[C@@H]3CCCNC3)nc3cc[nH]c(=O)c23)c1` gave an IC50 of 680 nM.

Consider `O=C(NCCc1ccccc1F)c1ccc(N2CCN(c3ccncc3)CC2)cn1`, for which the IC50 was determined as 1080 nM.

The molecule `CCCCCc1cc(O)c2c3c(c(=O)oc2c1)CN(C)CC3` displayed an IC50 of 120 nM.

Turning to `O=C(Nc1cccc(-c2ccc(-c3nc4ccc(C(F)(F)F)cc4[nH]3)cc2)c1)Nc1ccc(F)c(F)c1F`, the IC50 was determined as 260 nM.

As for `O=c1nc(C=Cc2ccc(Br)cc2)oc2ccccc12`, the IC50 worked out at 1050 nM.

Molecule `Cc1ccc(O)cc1Nc1ccnc2ccc(-c3cccc(CNCCN(C)C)c3)cc12` registered a 50% inhibitory concentration (IC50) of 610 nM.

Regarding `O=C(Nc1ccc(Cl)c(Cl)c1)N1CCC(CNCc2cccc([N+](=O)[O-])c2)CC1`, the IC50 stood at 980 nM.

In turn, `O=C(Nc1cccc(CN2CCN(Cc3cccc(O)c3)CC2)c1)c1cc2ccccc2s1` showed an IC50 of 1120 nM.

In turn, `O=S(=O)(NCCN1CCCC1)c1cccc(-c2cccc(CNCc3ccsc3)c2)c1` returned an IC50 of 870 nM.

`Cc1c(F)cc(C(=O)NC2CC2)cc1-c1ccc2c(cnn2S(=O)(=O)c2ccc(F)c(F)c2)c1` registered an IC50 of 270 nM.

Molecule `Nc1nc(N)c2c(n1)CCC(c1ccccc1)C2` (configuration not stated) showed an IC50 of 1010 nM.

On to `Cc1cc(NC(=O)CCN2CCN(c3cccc(Cl)c3Cl)CC2)ccc1N1CCN(C(C)C)CC1`, for which the IC50 was 850 nM.

The molecule `O=C(COc1ccccc1Cl)N1CCc2cc3nccc(N4CCN5CCC[C@H]5C4)c3cc21` registered an IC50 of 740 nM.

For `O=C(Nc1ccnc(-c2cccnc2)n1)c1cc(C(F)(F)F)cc(C(F)(F)F)c1`, the IC50 turned out to be 820 nM.

Consider `CC(=O)Nc1ccc(C(=O)Nc2cccc(-c3cccc(-c4nc5c(C)cccc5[nH]4)c3)c2)cn1`, for which the IC50 was 60 nM.

`N=C(N)c1cccc(-c2cc(-c3cccc(C(=N)N)c3)on2)c1`: the IC50 was determined as 90 nM.

As for `O=C(Nc1cccc(CN2CCCN(Cc3cccc(Cl)c3)CC2)c1)c1ccc(Br)cc1`, the IC50 is 940 nM.

Regarding `CCC[C@@H]([C@@H](CC(C)C)C(=O)N[C@H](C(=O)Nc1nccs1)C(C)(C)SCCNC(=O)OCC)N(O)C=O`, the IC50 stood at 170 nM.

`Cc1ccc(NC(=O)c2ccc3ncccc3c2)cc1OC1CCN(CCC(C)C)C1` (configuration not stated) returned an IC50 of 350 nM.

In turn, `Cc1cc(NCCC(=O)NCCOc2ccccc2)nc(NCc2ccccc2C)n1` yielded an IC50 of 870 nM.

With `COc1ccc2c(NN=Cc3cccc(C)n3)cc(-c3ccccc3)nc2c1`, the concentration for half-maximal inhibition (IC50) amounted to 750 nM.

Take `Cn1c(=O)c(-c2c(Cl)cccc2Cl)cc2cnc(Nc3ccc(N4CCOCC4)cc3)nc21`: the IC50 was determined as 160 nM.

Regarding `O=S(=O)(NC1CCN(c2ccnc3cc(Cl)ccc23)C1)c1ccc(C(F)(F)F)cc1` (configuration not stated), the IC50 stood at 300 nM.

`Cn1ncc2ccc(Nc3nccc(-c4ccc5c(c4)c(N)nn5C)n3)cc21` yielded an IC50 of 650 nM.

On to `CCCCSc1ccc(CNCCCCCCNCc2ccc(SCCCC)c3ccccc23)c2ccccc12`, for which the IC50 stood at 630 nM.

On to `NC(N)=Nc1ccc(OCCCCCOc2ccc(N=C(N)N)cc2Br)c(Br)c1`, for which the IC50 was 260 nM.

Take `Cc1c(CNCCCNc2nc3cscc3[nH]2)sc(C(F)F)c1Br`: the IC50 is 940 nM.

Molecule `CCNc1cc(C(=O)N[C@@H](Cc2ccccc2)[C@H](O)CNC2CCSCC2)cc(N2CCCC2=O)c1` registered an IC50 of 130 nM.

`O=C(Nc1cc(C(F)(F)F)cc(C(F)(F)F)c1)N1CCC(CN2CCC(c3c[nH]c4ccccc34)CC2)CC1` gave an IC50 of 190 nM.

Molecule `COc1cc2ncnc(Nc3ccc4nc(Cc5ccccc5)[nH]c4c3)c2cc1OC` had an IC50 of 1480 nM.

In the case of `COc1ccc(O)c(CN2CCN(c3cc(C)ccc3C)CC2)c1`, the IC50 is 1010 nM.

In turn, `O=C(C=Cc1ccc(Cl)c(Cl)c1)NCCCCCN1CCC(CCNC(=O)c2cccc3ccccc23)CC1` registered an IC50 of 1590 nM.

In turn, `CC(=O)c1ccc(Nc2c(C(N)=O)cnc3cc(-c4c(C)noc4C)ccc23)cc1` came in with an IC50 of 190 nM.

Take `CC(C)NCc1ccc(-c2ccc(NC(=O)c3ccc(Cl)cc3)cc2)cc1`: the IC50 came to 910 nM.

The molecule `Cc1nc(C)c(CC(=O)Nc2ccc(-c3cccc(-c4nc5ccc(C(F)(F)F)cc5[nH]4)c3)cc2)s1` had an IC50 of 920 nM.

For the molecule `Cc1c(Cn2ncc(N3C[C@@H](C)N[C@@H](C)C3)c(Cl)c2=O)cccc1NC(=O)Nc1ccc(-c2ccccc2)cc1`, the IC50 came to 600 nM.

The molecule `CCOC(=O)c1[nH]c(-c2cc(Cl)nc(Cl)c2)nc1NC(=S)NCc1ccc(NS(C)(=O)=O)cc1` returned an IC50 of 890 nM.

Regarding `COc1ccc2c(Nc3ccc(N4CCN(C)CC4)cc3)cc(C)nc2c1`, the IC50 stood at 720 nM.

`O=C(Nc1ccccc1)N(Cc1ccccc1-c1cccc(CNCCc2ccccc2)c1)C1CCN(Cc2ccccc2)CC1`: the IC50 turned out to be 180 nM.

On to `NS(=O)(=O)c1cccc(-c2ccc3ncc(N4CCOCC4)nc3c2)c1`, for which the IC50 was 990 nM.

Molecule `Cc1cc(OCC2CCCO2)c2cc(NC(=O)C(=O)Nc3ccc4nc(C)cc(OCC5CCCO5)c4c3)ccc2n1` (configuration not stated) had an IC50 of 800 nM.

Regarding `CN1CCCN(Cc2ccc(-c3cccc(NC(=O)c4ccc(C#N)cc4)c3)cc2)CC1`, the IC50 is 740 nM.

As to `COc1cc2c(C3CCN(CC4CCN(C(=O)/C=C/c5ccc(Cl)c(Cl)c5)CC4)CC3)c[nH]c2cn1`, the IC50 turned out to be 730 nM.

`CCCCc1ccc(C(=O)Nc2ccc3nc(N4CCN(C)CC4)cc(C)c3c2)cc1` registered an IC50 of 1100 nM.

Turning to `O=C(NCCc1ccccc1)N(Cc1cccc(-c2ccc(CNCCc3ccccc3)cc2)c1)C1CCN(Cc2ccccc2)CC1`, the IC50 amounted to 610 nM.

Molecule `CN(C)Cc1ccc(-c2cc3c(Nc4ccc(OCc5cccc(F)c5)c(Cl)c4)ncnc3s2)[nH]1` showed an IC50 of 820 nM.

As to `COc1ccc(-c2cnc3ccc(NCc4ccc(S(N)(=O)=O)cc4)nn23)cn1`, the IC50 stood at 870 nM.

In turn, `Cc1cccc2[nH]c(-c3cccc(-c4cccc(NC(=O)c5cnn6cccnc56)c4)c3)nc12` gave an IC50 of 670 nM.

On to `CC(C)(CNC(=O)[C@H]1CCCN1)c1nc(-c2ccc(Cl)c(O)c2)c(-c2ccncc2)[nH]1`, for which the IC50 worked out at 1270 nM.

Molecule `O=C(Nc1ccsc1)Nc1cccc(-c2cccc(-c3nc4ccccc4[nH]3)c2)c1` showed an IC50 of 120 nM.

`COc1ccc(CC(=O)NC(CCN2CCC3(CC2)CN(S(C)(=O)=O)c2ccccc23)c2ccc(Cl)c(Cl)c2)cc1OC` (configuration not stated) displayed an IC50 of 1000 nM.

Take `Cc1cccc2[nH]c(-c3cccc(-c4cccc(NC(=O)NCc5ccccc5)c4)c3)nc12`: the IC50 came out at 520 nM.

For `CCc1c(CCNCCCCCCNCCc2ccc(OC)cc2)ccc(OC)c1OC`, the IC50 was found to be 870 nM.

With `CCN(CC)S(=O)(=O)c1ccc(Cl)c(C(=O)Nc2ccc3nc(C)sc3c2)c1`, the IC50 is 800 nM.

In turn, `CSC1=NC(=Nc2ccccc2C)C2(CCC(C(C)(C)C)CC2)N1c1ccccc1Cl` (configuration not stated) registered an IC50 of 800 nM.

For `O=C(Nc1cc(Cl)cc(Cl)c1)Nc1ccnc2ccccc12`, the IC50 amounted to 750 nM.

`N#CN1CC[C@@H](NS(=O)(=O)Cc2ccc(Cl)c(Cl)c2)C1` returned an IC50 of 530 nM.

For the molecule `CC(C)CCn1c(Sc2ccc(C#N)c([N+](=O)[O-])c2)nnc1-c1ccc(N(C)C)cc1`, the IC50 came out at 790 nM.

The values are drawn from PubChem BioAssay AID2305 (GlaxoSmithKline (GSK), 2010).
